“And” between values parts separate entries of the source, which are not always exact repeats. Equal values may be shown once.
test system: rat uterine decidualization; experiment: Rat decidualization assay; assay type: in vivo; details: decrease in EC50 progesterone induced decidual response in rat, p.o.; individual studies
Procedure: 1. Rat Decidualization Assay
The materials and methods used in tins assay are as follows.
The animals are treated once daily for seven days.
Uteri are removed and trimmed of fat.
Decidual response: [(D-C)/C]×100%

Row | IC50 | Compound
1 | 0.21 mg/kg, p.o. and 0.14 mg/kg, p.o. | CC#C[C@]1(O)CC[C@H]2[C@@H]3CCC4=CC(=O)CCC4=C3[C@@H](c3ccc(N(C)C)cc3)C[C@@]21C [RU486]

same assay, conditions: rat decidual response, s.c.; average of dose-response curves

Row | Estimated average EC50 | Compound
2 | 0.10 mg/kg, s.c. | C#C[C@]1(O)CC[C@H]2[C@@H]3CCC4=CC(=O)CC[C@@H]4[C@H]3C(=C)C[C@@]21CC [3-Ketodesogestrel]

test system: not given; experiment: not given; details: not given

Row | melting point [°C] | Compound
3 | 171 to 172 | O=C1Nc2ccccc2C12CCCC(c1cccc(F)c1)C2 (centres unmarked) [Example 21, 5-(3-Fluorophenyl)spiro[cyclohexane-1,3′-[3H]indol]-2′(1′H)-one]
4 | 231.2 to 232.3 | CC1(C)C(=O)Nc2ccc(-c3cc(F)cc(C#N)c3)cc21 [Example 82, 3-(3,3-Dimethyl-2-oxo-2,3-dihydro-1H-indol-5-yl)-5-fluoro-benzonitrile]
5 | 190 to 193 | N#CCc1cccc(-c2ccc3c(c2)C2(CCCCC2)C(=O)N3)c1 [Example 81, 3-(1′,2′-Dihydro-2′-oxospiro[cyclohexane-1,3′-[3H]indol]-5′-yl)phenylacetonitrile]
6 | 213 to 217 | O=C1Nc2ccc(-c3cccc(C=NO)c3F)cc2C12CCCCC2 [Example 68, 2-fluoro-3-(1′,2′-Dihydro-2′-oxospiro[cyclohexane-1,3′-[3H]indol]-5′-yl) benzaldehyde oxime]
7 | 157 to 158 | COc1cccc(-c2ccc3c(c2)C(C)(C)C(=O)N3)c1 [Example 3, 5-(3-Methoxy-phenyl)-3,3-dimethyl-1,3-dihydro-indol-2-one]
8 | 240 to 242 | O=C1Nc2ccc(-c3ccc(C=NO)c(F)c3)cc2C12CCCCC2 [Example 64, 2-fluoro-4-(1′,2′-Dihydro-2′-oxospiro[cyclohexane-1,3′-[3H]indol]-5′-yl) benzaldehyde oxime]
9 | 213 to 216 | O=C1Nc2ccc(-c3cccc(O)c3)cc2C12CCCCC2 [Example 33, 5′-(3-Hydroxyphenyl)spiro[cyclohexane-1,3′-[3H]indol]-2′(1′H)-one]
10 | 232 to 234 | N#Cc1cncc(-c2ccc3c(c2)C2(CCCCC2)C(=O)N3)c1 [Example 17, 5-(1′,2′-Dihydro-2′-oxospiro[cyclohexane-1,3′-[3H]indol]-5′-yl)-3-pyridine carbonitrile]
11 | 146 | CCOC(OCC)N1C(=O)C2(CCCCC2)c2cc(-c3cc(F)cc(C#N)c3)ccc21 [Example 50, 3-(1′-Diethoxymethyl-1′,2′-dihydro-2′-oxospiro[cyclohexane-1,3′-[3H]indol]-5′-yl)-5-fluorobenzonitrile]

Reference: patent US7084168B2, “Indoline derivatives” (Wyeth, priority 1999, dated 2006)
